Experimental data as given in patent US11802127B2, “3,4-dihydro-2,7-naphthyridine-1,6(2H,7H)-diones as MEK inhibitors” (Pfizer Inc., priority 2021, dated 2023).
Structures can show the parent of a compound that is named as a salt.

Key:
[1] = system: ERK1/2(Thr202/Tyr204) phosphorylation (MEK-dependent) in A375 cells; assay: Cellular Phospho-p44/42 MAPK (Erk1/2) (Thr202/Tyr204) Assay; assay type: cell-based; conditions: Homo sapiens, A-375, 1-hour incubation, pERK1/2 (Thr202/Tyr204) In-Cell Western normalized to GAPDH
Protocol: Inhibition of ERK1/2(Thr202/Tyr204) phosphorylation was determined by the following cellular assay, which comprises incubating cells with a compound for 1 hour and quantifying pERK signal by In-Cell Western on fixed cells and normalizing to GAPDH signal. A375 cells were obtained from the ATCC and grown in DMEM supplemented with 10% fetal bovine serum, penicillin/streptomycin, Glutamax®, non-essential amino acids, and sodium pyruvate. Cells were plated in 96-well plates at 30,000 cells/well and allowed to attach overnight at 37° C./5% CO2. Cells were treated with compounds prepared as a 10-point, 1:3 dilution series (range: 20 μM-0.05 nM; maximum concentration varied from 20 μM-1 μM), with a final DMSO concentration of 0.5%. Control wells contained either 0.5% DMSO alone (no inhibition control) or 1 μM of a potent control compound (complete inhibition control). After a 1-hour incubation, cells were fixed in 3.7% formaldehyde in dPBS (Dulbecco's phosphate-buffered saline) at room temperature for 20 minutes. Cells were then washed with dPBS and permeabilized in 100% MeOH at room temperature for 10 minutes. Following permeabilization, cells were washed in dPBS and incubated in LI-COR Blocking Buffer (LI-COR Biosciences, Cat #927-40000) for 1 hour or longer. Plates were then incubated with an antibody specific for the MEK-dependent ERK1/2 phosphorylation sites, threonine 202 and tyrosine 204 (Cell Signaling Technologies; Cat #9101), downstream of MEK in the MAP kinase signal transduction pathway, as well as GAPDH (Millipore; Cat #MAB374). pErk1/2 (Thr202/Tyr204) antibody was diluted in LI-COR blocking buffer containing 0.05% Tween-20 at 1:250; GAPDH was diluted at 1:2,500. The plates were incubated overnight at 4° C. After washing with PBS/0.05% Tween-20, the cells were incubated with fluorescently-labeled secondary antibodies (Anti-rabbit-Alexa Flour680, Invitrogen Cat #A21109; Anti-mouse-IRDye800CW, LI-COR Biosciences Cat #926-32210, both at 1:1000 dilution) for 1 hour. Cells were then washed, as above, and analyzed for fluorescence at both 680 and 800 nm wavelengths using the Odyssey CLx Infrared Imaging System (LI-COR Biosciences). Phosphorylated Erk1/2 (Thr202/Tyr204) signal was normalized to GAPDH signal for each well.

[2] = molecular target: T1, BCRP (hBCRP) (Homo sapiens, UniProt Q9UNQ0); assay: Efflux ratio in BCRP transfected MDCKII canine P-gp knockout cells; assay type: in vitro ADME; conditions: Papp(B−A)/Papp(A−B), read-out: Efflux ratio MDCKII-hBCRP knock-in,canine pg-P KO
T1 construct: expressed in transfected cells; host or cells: MDCKII (canine kidney) cells, canine P-gp knockout, transfected with BCRP
T1 sequence (Q9UNQ0 1-655): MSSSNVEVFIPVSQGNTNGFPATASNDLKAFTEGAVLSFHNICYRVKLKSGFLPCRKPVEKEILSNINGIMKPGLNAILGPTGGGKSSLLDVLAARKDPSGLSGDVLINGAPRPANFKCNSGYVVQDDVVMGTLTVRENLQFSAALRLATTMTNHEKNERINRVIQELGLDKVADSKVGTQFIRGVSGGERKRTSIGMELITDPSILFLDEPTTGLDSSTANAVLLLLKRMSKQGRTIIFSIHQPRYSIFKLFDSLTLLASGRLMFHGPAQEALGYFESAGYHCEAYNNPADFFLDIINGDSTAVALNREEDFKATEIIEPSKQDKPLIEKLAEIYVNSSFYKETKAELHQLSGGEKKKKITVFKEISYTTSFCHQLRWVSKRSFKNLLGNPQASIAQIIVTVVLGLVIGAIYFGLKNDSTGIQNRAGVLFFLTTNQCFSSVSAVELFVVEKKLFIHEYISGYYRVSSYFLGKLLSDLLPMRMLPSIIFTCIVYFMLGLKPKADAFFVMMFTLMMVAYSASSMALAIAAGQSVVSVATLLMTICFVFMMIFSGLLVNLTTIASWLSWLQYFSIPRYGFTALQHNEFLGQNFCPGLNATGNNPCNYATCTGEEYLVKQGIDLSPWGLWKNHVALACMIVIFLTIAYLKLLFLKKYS
Protocol: BCRP transfected MDCKII canine P-gp knockout cell line was cultured and plated according to manufacturer's recommendations.
Both positive and negative controls were used to assess functionality of P-gp or BCRP efflux in the assays. Stock solutions for assay controls and the test article were prepared in DMSO for final test concentrations of 10 and 1 μM, respectively. Final organic concentration in the assay was 1%. All dosing solutions contained 10 μM lucifer yellow to monitor LLC-PK1 or MDCKII cell monolayer integrity.
For the apical to basolateral determination (A to B), 75 μL of the test article in transport buffer were added to the apical side of the individual transwells and 250 μL of basolateral media, without compound or lucifer yellow, were added to each well. For the basolateral to apical determination (B to A), 250 μL of test article in transport buffer were added to each well and 75 μL transport buffer, without compound or lucifer yellow, were added to each transwell. All tests were performed in triplicate, and each compound was tested for both apical to basolateral and basolateral to apical transport. The plates were incubated for 2 hours on a Lab-Line Instruments Titer Orbital Shaker (VWR, West Chester, PA) at 50 rpm and 37° C. with 5% CO2. All culture plates were removed from the incubator and 50 μL of media were removed from the apical and basolateral portion of each well and added to 150 μL of 1 μM labetalol in 2:1 acetonitrile (acetonitrile): H2O, v/v.
The plates were read using a Molecular Devices (Sunnyvale, CA) Gemini Fluorometer to evaluate the lucifer yellow concentrations at excitation/emission wavelengths of 425/535 nm. These values were accepted when found to be below 2% for apical to basolateral and 5% basolateral to apical flux across the MDR1-transfected LLC-PK1 or BCRP-transfected MDCKII cell monolayers. The plates were sealed and the contents of each well analyzed by LC-MS/MS. The compound concentrations were determined from the ratio of the peak areas of the compound to the internal standard (labetalol) in comparison to the dosing solution.
The LC-MS/MS system was comprised of an HTS-PAL autosampler (Leap Technologies, Carrboro, NC), an HP1200 HPLC (Agilent, Palo Alto, CA), and a MDS Sciex 4000 Q Trap system (Applied Biosystems, Foster City, CA). […] The total run time, including re-equilibration, for a single injection was 1.2 minutes. Mass spectrometric detection of the analytes was accomplished using the ion spray positive mode. Analyte responses were measured by multiple reaction monitoring (MRM) of transitions unique to each compound (the protonated precursor ion and selected product ions for each test article and m/z 329 to m/z 162 for labetalol, the internal standard).
An efflux ratio is calculated from the mean apical to basolateral (A−B) Papp data and basolateral to apical (B−A) Papp data: Efflux ratio=Papp(B−A)/Papp(A−B)

efflux ratio at 2 h, 1 μM [2] | SMILES | IC50 [1]
 | Cn1c(Nc2ccc(Br)cc2F)c2c(cc1=O)CCN(OCC1CC1)C2=O [Example 2, 8-((4-bromo-2-fluorophenyl)amino)-2-(cyclopropylmethoxy)-7-methyl-3,4-dihydro-2,7-naphthyridine-1,6(2H,7H)-dione] | 1030 nM
 | Cn1c(Nc2ccc(Br)c(F)c2F)c2c(cc1=O)CCN(OCCO)C2=O [Example 11, 8-((4-bromo-2,3-difluorophenyl)amino)-2-(2-hydroxyethoxy)-7-methyl-3,4-dihydro-2,7-naphthyridine-1,6(2H,7H)-dione] | 199 nM
 | Cn1c(Nc2ccc(Br)c(Cl)c2F)c2c(cc1=O)CCN(OCCO)C2=O [Example 12, 8-((4-bromo-3-chloro-2-fluorophenyl)amino)-2-(2-hydroxyethoxy)-7-methyl-3,4-dihydro-2,7-naphthyridine-1,6(2H,7H)-dione] | 1060 nM
 | Cn1c(Nc2ccc(C(F)(F)F)cc2F)c2c(cc1=O)CCN(OCCO)C2=O [Example 13, 8-((2-fluoro-4-(trifluoromethyl)phenyl)amino)-2-(2-hydroxyethoxy)-7-methyl-3,4-dihydro-2,7-naphthyridine-1,6(2H,7H)-dione] | 178 nM
 | COc1ccc(Nc2c3c(cc(=O)n2C)CCN(OCCO)C3=O)c(F)c1 [Example 16, 8-((2-fluoro-4-methoxyphenyl)amino)-2-(2-hydroxyethoxy)-7-methyl-3,4-dihydro-2,7-naphthyridine-1,6(2H,7H)-dione] | 274 nM
 | Cn1c(Nc2ccc(SC(F)(F)F)cc2F)c2c(cc1=O)CCN(OCCO)C2=O [Example 17, 8-((2-fluoro-4-((trifluoromethyl)thio)phenyl)amino)-2-(2-hydroxyethoxy)-7-methyl-3,4-dihydro-2,7-naphthyridine-1,6(2H,7H)-dione] | 256 nM
 | CC(=O)c1ccc(Nc2c3c(cc(=O)n2C)CCN(OCCO)C3=O)c(F)c1 [Example 20, 8-((4-acetyl-2-fluorophenyl)amino)-2-(2-hydroxyethoxy)-7-methyl-3,4-dihydro-2,7-naphthyridine-1,6(2H,7H)-dione] | 632 nM
 | Cn1c(Nc2ccc(OC(F)(F)F)cc2F)c2c(cc1=O)CCN(OCCO)C2=O [Example 24, 8-((2-fluoro-4-(trifluoromethoxy)phenyl)amino)-2-(2-hydroxyethoxy)-7-methyl-3,4-dihydro-2,7-naphthyridine-1,6(2H,7H)-dione] | 466 nM
 | Cn1c(Nc2ccc(I)cc2F)c2c(cc1=O)CCN(OC(C)(C)C)C2=O [Example 30, 2-(tert-butoxy)-8-((2-fluoro-4-iodophenyl)amino)-7-methyl-3,4-dihydro-2,7-naphthyridine-1,6(2H,7H)-dione] | 421 nM
 | C[C@@H](O)CON1CCc2cc(=O)n(C)c(Nc3ccc(Br)cc3F)c2C1=O [Example 34, (R)-8-((4-bromo-2-fluorophenyl)amino)-2-(2-hydroxypropoxy)-7-methyl-3,4-dihydro-2,7-naphthyridine-1,6(2H,7H)-dione] | 207 nM
 | Cc1c2c(c(Nc3ccc(Br)cc3F)n(C)c1=O)C(=O)N(OC[C@@H](C)O)CC2 [Example 35, (R)-8-((4-bromo-2-fluorophenyl)amino)-2-(2-hydroxypropoxy)-5,7-dimethyl-3,4-dihydro-2,7-naphthyridine-1,6(2H,7H)-dione] | 229 nM
 | Cn1c(Nc2ccccc2F)c2c(c(I)c1=O)CCN(OCCO)C2=O [Example 41, 8-((2-fluorophenyl)amino)-2-(2-hydroxyethoxy)-5-iodo-7-methyl-3,4-dihydro-2,7-naphthyridine-1,6(2H,7H)-dione] | 74 nM
 | Cc1c2c(c(Nc3ccccc3F)n(C)c1=O)C(=O)N(OCCO)CC2Br (centres unmarked) [Example 43, 4-bromo-8-((2-fluorophenyl)amino)-2-(2-hydroxyethoxy)-5,7-dimethyl-3,4-dihydro-2,7-naphthyridine-1,6(2H,7H)-dione] | 155 nM
 | CCCc1ccc(Nc2c3c(cc(=O)n2C)CCNC3=O)c(F)c1 [Example 54, 8-((2-fluoro-4-propylphenyl)amino)-7-methyl-3,4-dihydro-2,7-naphthyridine-1,6(2H,7H)-dione] | 167 nM
 | Cc1c2c(c(Nc3ccc(OC(F)F)cc3F)n(C)c1=O)C(=O)NCC2 [Example 58, 8-((4-(difluoromethoxy)-2-fluorophenyl)amino)-5,7-dimethyl-3,4-dihydro-2,7-naphthyrdine-1,6(2H,7H)-dione] | 45 nM
 | Cn1c(Nc2ccc(Br)cc2Cl)c2c(cc1=O)CCNC2=O [Example 59, 8-((4-bromo-2-chlorophenyl)amino)-7-methyl-3,4-dihydro-2,7-naphthyridine-1,6(2H,7H)-dione] | 72 nM
 | Cn1c(Nc2ccc(Br)cc2F)c2c(cc1=O)CCN(CCO)C2=O [Example 60, 8-((4-bromo-2-fluorophenyl)amino)-2-(2-hydroxyethyl)-7-methyl-3,4-dihydro-2,7-naphthyridine-1,6(2H,7H)-dione trifluoroacetate] | 508 nM
 | CSc1ccc(Nc2c3c(cc(=O)n2C)CCN(OCC(F)F)C3=O)c(F)c1 [Example 63, 2-(2,2-difluoroethoxy)-8-((2-fluoro-4-(methylthio)phenyl)amino)-7-methyl-3,4-dihydro-2,7-naphthyridine-1,6(2H,7H)-dione] | 114 nM
1.5 | Cn1c(Nc2ccc(Br)cc2F)c2c(cc1=O)C(c1ccccc1)CNC2=O (centres unmarked) [Example 64, 8-((4-bromo-2-fluorophenyl)amino)-7-methyl-4-phenyl-3,4-dihydro-2,7-naphthyridine-1,6(2H,7H)-dione] | 2 nM
